Experimental data from patent US11685766B2, “14-3-3 targeting peptides for cancer treatment” (Creighton University, priority 2019, dated 2023).
“Also recorded” adds a separate entry of the source. Peptide text beside a SMILES is read from it.

Experiments:
[1] = tested on: SCC13 cells xenograft tumors; experiment: Mouse SCC tumor xenografts (TUNEL, immunofluorescence, tumor growth); type: in vivo; settings: for tumor volume compared to vehicle-treated xenografts: mouse xenograft tumors; for P-Akt (S473) levels in SCC xenografts (immunofluorescence) / Survivin levels in SCC xenografts (immunofluorescence): vs vehicle-treated xenografts; for increase in number of TUNEL-positive SCC cells compared to vehicle: intratumoral 2.5 nmol/50 μL, NCG mice, SCC13
Procedure: Immunofluorescence was performed using an alexa-fluor488-conjugated secondary antibody (IgG mouse or rabbit) (Invitrogen) with 4′,6-diamidino-2-phenylindole (DAPI) (Vector Labs, Burlingame, Calif., USA) to identify nuclei. Cellular localization of immunohistochemistry signal was determined in a double-blinded manner. Slides were digitalized and fluorescence intensity was measured using Image analysis was performed using the Olympus VS120 Slide Scanner and Olyvia Analysis Software, respectively (Olympus, Tokyo, Japan).
Groups of NCG mice (NOD CRISPR Prkdc Il2r gamma/NjuCrl) (Charles River, Malvern, Pa., USA) were injected s.c. with 5×10^5 SCC13 cells suspended in 1:1 mixture of 1×PBS:Matrigel (Corning, Corning, N.Y., USA). Once the tumors reached a volume of 150 mm^3, tumors were treated with either vehicle (50 μL 1×PBS) or 2.5 nmol/50 μL of the targeting peptide ES1P2. Tumors were injected directly with either vehicle or ES1P2 daily for 2 days or every other day for 2 weeks and then harvested for analysis 24 hours after the last treatment. Tumors were fixed overnight in 10% buffered formalin (Thermo Fisher) and then switched to 70% ethanol the following day. All procedures were performed in accordance with the guidance of Creighton University Institutional Animal Care and Use Committee.
TUNEL (Terminal deoxynucleotidyl transferase dUTP nick end labeling) was carried out using Promega DeadEnd Fluorometric TUNEL system in accordance with the manufacturer's instructions (Promega). Cells were treated with DAPI (Vector Labs) to locate the nuclei within cells. […] Slides were digitalized and apoptotic nuclei counted using an Olympus VS120 Slide Scanner (Olympus).
Immunostaining was performed using antibodies recognizing P-Akt (S473) (Thermo Fisher) and Survivin (Cell Signaling, Danvers, Mass., USA), with alexa-fluor488-conjugated secondary antibody (IgG rabbit) (Invitrogen) with 4′,6-diamidino-2-phenylindole (DAPI) (Vector Labs, Burlingame, Calif., USA) to identify the nuclei. Slides were digitalized and analyzed using an Olympus VS120 Slide Scanner (Olympus, Shinjuku, Tokyo, JPN).
Groups of NCG mice (NOD CRISPR Prkdc Il2r gamma/NjuCrl) (Charles River, Malvern, Pa., USA) were injected s.c. with 5×10^5 human SCC13 cells suspended in 1:1 mixture of 1×PBS:Matrigel (Corning, Corning, N.Y., USA). Once the tumors reached 150 mm^3 in volume they were treated intratumorally with either vehicle (1× sterile PBS, pH, 7.5), pS, or pT (2.5 nmol/50 μL for each) daily for 2 days and then the mice were euthanized 24 hours after the second treatment. Tumors were fixed overnight in 10% neutral buffered formalin (Thermo Fisher) and then switched to 70% ethanol the following day before embedding and sectioning. All procedures were performed in accordance with the guidance of the Creighton University Institutional Animal Care and Use Committee.
TUNEL (terminal uridine nick-end labelling) assays were carried out using the Promega DeadEnd Fluorometric TUNEL system in accordance with the manufacturer's instructions (Promega Corporation, Madison, Wis., USA). Cells were treated with 4′,6-diamidino-2-phenylindole (DAPI) to locate the nuclei within cells. Slides were scanned and analyzed using an Olympus VS120 Slide Scanner (Olympus).

[2] = target: T1, 14-3-3ε binding to CDC25A (Homo sapiens, UniProt P62258); experiment: Co-immunoprecipitation / immunoblot of CDC25A bound to 14-3-3ε; type: cell-based; settings: SCC12B.2 cells; for amount of CDC25A on immunoblots of immunoprecipitated 14-3-3ε: pS 30 μM, pT printed 2004, 48 hours, vs vehicle, P≤0.05
T1 construct: endogenous in cells; host or cells: SCC12B.2
T1 sequence (P62258 1-255): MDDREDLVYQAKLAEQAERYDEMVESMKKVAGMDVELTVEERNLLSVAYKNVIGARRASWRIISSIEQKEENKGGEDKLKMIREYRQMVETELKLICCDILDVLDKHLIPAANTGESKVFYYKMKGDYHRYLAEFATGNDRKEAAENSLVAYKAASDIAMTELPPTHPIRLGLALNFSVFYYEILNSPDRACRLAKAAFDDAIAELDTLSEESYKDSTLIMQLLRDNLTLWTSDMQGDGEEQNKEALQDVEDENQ
Procedure: Co-Immunoprecipitation (Co-IP) was performed using a Dynabeads Protein G Immunoprecipitation kit (Life Technologies, Carlsbad, Calif., USA). Beads were coupled to antibodies targeting 14-3-3ε (Fisher Scientific, Waltham, Mass., USA) or CDC25A (Santa Cruz Biotechnology, Dallas, Tex., USA) at a ratio of 7 μg of antibody for every 1 mg of beads according to the manufacturers protocol. SCC12B.2 cells were treated with vehicle (20 mM Tris buffer, pH 7.5) or fresh peptide (pS or pT) daily at the IC50 concentration for 48 hours in Opti-MEM I Reduced Serum Medium (Invitrogen) and collected by trypsinization. One hundred mg of cells were lysed in 1×IP buffer supplemented with 100 mM sodium chloride, 2 mM dithiothreitol, 1 mM magnesium chloride and protease/phosphatase inhibitors. Immunoprecipitation reactions were carried out using 1.5 mg of antibody-coupled beads incubated with 100 mg of cell lysate at 4° C. for 30 minutes. Negative controls were immunoprecipitation reactions using beads coupled to IgG isotype control antibody (rabbit), and whole lysate from immunoprecipitation input was loaded directly onto a gel was used as a positive control.
Protein was collected by either standard whole-cell lysis using ice-cold radioimmunoprecipitation assay (RIPA) lysis buffer supplemented with protease (Roche Life Scientific) and phosphatase inhibitors (NaF, Na3VO4) or by nuclear/cytosolic extraction using the NE-PER Nuclear and Cytoplasmic Protein Extraction Reagent Kit according to the manufacturer's protocol (Pierce, Rockford, Ill., USA). Tissue protein was extracted by using a tissue grinder to lyse cells in 100 μL of RIPA lysis buffer for every 1 mg of tissue. […] Protein concentration was assessed with the Bradford assay. […] Bands were detected using horseradish peroxidase-conjugated secondary antibodies (IgG mouse or rabbit) (Cell Signaling) and visualized using western lightning plus chemiluminescent reagent (MidSci, Valley Park, Mo., USA) and signal read on a Chemidoc XRS Molecular Imager (Bio-Rad Laboratories, Hercules, Calif., USA).

Row | SMILES | number of TUNEL-positive SCC cells compared to vehicle ([1]; intratumoral 2.5 nmol, 2 daily treatments) | tumor volume compared to vehicle-treated xenografts [1] | reduction of SCC growth compared to vehicle ([1]; repeated intratumoral treatments of SCC xenografts, FIG. 1H/1I) | P-Akt (S473) levels in SCC xenografts (immunofluorescence) [1] | Survivin levels in SCC xenografts (immunofluorescence) [1] | 14-3-3ε precipitation, pS-treated compared to pT-treated samples ([2]; 48 hours) | amount of CDC25A on immunoblots of immunoprecipitated 14-3-3ε [2] | increase in number of TUNEL-positive SCC cells compared to vehicle ([1]; 2 daily treatments)
1 | NCCCC[C@H](NC(=O)[C@H](Cc1c[nH]c2ccccc12)NC(=O)[C@H](Cc1ccc(O)cc1)NC(=O)[C@@H](N)Cc1c[nH]c2ccccc12)C(N)=O [ES1P2, Trp-Tyr-Trp-Lys-NH2] (H-WYWK-NH2) | more than doubled | decreased tumor growth; also recorded: reduced tumor volume | approximately one-third | decreased | decreased |  |  | 
2 | CSCC[C@H](NC(=O)[C@H](CCCNC(=N)N)NC(=O)[C@@H]1CCCN1C(=O)[C@H](C)NC(=O)[C@H](COP(=O)(O)O)NC(=O)[C@H](CC(N)=O)NC(=O)[C@H](CCC(N)=O)NC(=O)[C@H](CCCNC(=N)N)NC(=O)[C@H](CCC(N)=O)NC(=O)[C@@H](NC(C)=O)[C@@H](C)O)C(=O)N[C@@H](CC(C)C)C(=O)N[C@@H](CO)C(=O)N[C@@H](CO)C(=O)N[C@@H](CC(N)=O)C(N)=O [pS, Ac-Thr-Gln-Arg-Gln-Asn-Ser-(PO3^2−)-Ala-Pro-Arg-Met-Leu-Ser-Ser-Asn-NH2] (HELM PEPTIDE1{[ac].T.Q.R.Q.N.[O=C([C@H](COP(=O)(O)O)N[*:1])[*:2]].A.P.R.M.L.S.S.N.[am]}$$$$V2.0) |  | decreased volume |  | decreased | decreased | less 14-3-3ε precipitation | decreases the amount of CDC25A | 25%
3 | CC(=O)N[C@@H](CCCNC(=N)N)C(=O)N[C@H](C(=O)N[C@@H](CCCCN)C(=O)N[C@@H](CO)C(=O)N[C@@H](CCCNC(=N)N)C(=O)N[C@H](C(=O)N[C@@H](Cc1c[nH]c2ccccc12)C(=O)N[C@@H](C)C(=O)NCC(=O)N[C@@H](CCC(=O)O)C(=O)N[C@@H](CCCCN)C(=O)N[C@@H](CO)C(=O)N[C@@H](CCCCN)C(=O)N[C@@H](CCCNC(=N)N)C(N)=O)[C@@H](C)OP(=O)(O)O)[C@@H](C)O [pT, Ac-Arg-Thr-Lys-Ser-Arg-Thr(PO3^2−)-Trp-Ala-Gly-Glu-Lys-Ser-Lys-Arg-NH2] (HELM PEPTIDE1{[ac].R.T.K.S.R.[C[C@@H](OP(=O)(O)O)[C@H](N[*:1])C(=O)[*:2]].W.A.G.E.K.S.K.R.[am]}$$$$V2.0) |  | decreased volume |  | decreased | decreased |  | decreases the amount of CDC25A | 51%
